Measured values published in patent EP4559916A1, “PHARMACEUTICALLY ACCEPTABLE SALT AND POLYMORPH OF SUBSTITUTED PYRAZOLO[1,5-A]PYRIMIDIN-7-AMINE DERIVATIVE AND USE THEREOF” (Shanghai Haiyan Pharmaceutical Technology Co., Ltd., priority 2022, dated 2024).
Blank lines part the entries; values can stand above or below the molecule they belong to.

Columns and labels:
[1] = Stability test: changes in crystal form (XRPD) under high temperature and accelerated conditions; type: physicochemical; details: for changes in crystal form: 60°C (high temperature) and 40°C to 75% RH (accelerated), day 7, day 20, day 30, day 60
Procedure: X-ray powder diffraction (XRPD): in the present disclosure, the above crystalline or amorphous powder X-ray diffraction pattern was obtained by a known method in the art using an ARL Equinox3000 X-ray powder diffraction analyzer.
(§1) The changes in crystal form were detected at day 7, day 20, day 30, and day 60, respectively. […] (2) About 40 mg of phosphate crystal form I (prepared with reference to Example 1 of the present application) was weighed into a glass vial , and ethanol (1 mL) was added thereto, the glass vial was sealed and shaken at 50°C and 150 r/min for seven days, then centrifuged to collect the solid and the solvent was evaporated. […] Samples were taken and the related substances were determined. […]

[2] = Rough solubility in pH 4.5 and pH 6.8 buffers at room temperature; type: physicochemical
CDK9/CycT = target: T1, CDK9/CycT (Homo sapiens, UniProt P50750); assay: LANCE Ultra kinase activity inhibition test, CDK9; type: biochemical; details: ATP 10 µM
T1 construct: purchased Carna Bioscience 04-110
Excerpt: In the following LANCE Ultra test method, kinase reagents were purchased from Carna Bioscience, reaction substrates and detection reagents were purchased from Perkin Elmer, and the remaining reagents were purchased from Thermo scientific.
The LANCE Ultra method was used to determine the inhibitory effect of the test substance on the kinase activity of CDK1/CycB (Carna bioscience, #04-102), CDK2/ CycA (Carna bioscience, #04-103), CDK9/CycT (Carna bioscience, #04-110).
Each kinase in the test included three test groups: background group (Blank), non-inhibition group (PC) and compound test group (Test). […]
After the addition of the test solution, it was placed on a shaker and incubated at room temperature for 1 h in the dark. […] The 665 nm/615 nm values (hereinafter referred to as the Ratio value) were calculated for all groups, and the inhibition rate was calculated based on the Ratio value of each group; 2. […] XLFIT 5.0 software (IDBS, UK) was used for fitting, with logarithmic values of compound concentrations as the X axis and inhibition rates as the Y axis, and IC50 values of compounds were calculated using a four-parameter model.

[3] = In vivo pharmacokinetic test in mice; details: male ICR mice, gavage administration 10 mg/kg
Procedure: Test animals: healthy adult male ICR mice (weighing 30-40 g, 12 mice, intravenous injection group mice drinking water and diet ad libitum, gavage group fasting overnight, drinking water and diet ad libitum 4 h after administration), provided by Beijing Vital River Laboratory Animal Co. LTD;
Administration method and dosage: ICR mice were administered via caudal vein administration (2 mg/kg, 5% DMSO, pH 4.5 20% Captisol) and gavage administration (10 mg/kg, 5% DMSO, pH 4.5 20% Captisol).
Blood sampling: Animals meeting the experimental requirements were selected prior to administrating, weighed and labeled. Mice were bound prior to blood sampling, and each administrated mice was bled at a predetermined time point (caudal vein administration: blood samples were collected at 0.083 h, 0.25 h, 0.5 h, 1 h, 2 h, 4 h, 6 h, 7.5 h and 24 h after administration, totally 9 time points; gavage administration: blood samples were collected at 0.083 h, 0.25 h, 0.5 h, 1 h, 2 h, 4 h, 6 h, 7.5 h and 24 h after administration, totally 9 time points), and about 100 µL blood samples were collected through the orbit. The blood was transferred to a 1.5 mL test tube pre-added with K2EDTA, centrifuged for 4 min (8000 rpm, 4°C), and the plasma was removed. The whole process was completed within 15 min after blood collection. All samples were stored in a refrigerator at -20°C until sample analysis. LC/MS/MS method was used to determine drug concentrations.

[4] = system: MV4 -11 acute myeloid leukemia; assay: In vivo pharmacodynamic experiment, MV4-11 subcutaneous xenograft; design: species or system BALB/c nude mice; details: Oral, Once daily
Procedure: In vivo pharmacodynamic experiments were performed on BALB/c nude mice subcutaneously implanted with MV4 -11 acute myeloid leukemia […] xenograft (CDX) based on human tumor cell lines.
Protocol: BALB/c nude mice, female, 6-10 weeks old, weighing approximately 20-23 grams, were maintained in a special pathogen-free environment and in individual ventilated cages (5 mice per cage, 2 cages of 10). All cages, bedding and water were disinfected prior to use. All animals had free access to standard certified commercial laboratory diets. […] Each mouse was implanted with tumor cells subcutaneously in the right flank (1×10^7 0.1 ml+Matrigel 0.1 ml) for tumor growth. When the average tumor volume reached about 165 cubic mm, randomization was performed according to body weight and tumor volume, and administration was started. The test compound was administered orally by gavage daily. Antitumor efficacy was determined by dividing the average tumor increase volume of animals treated with the compound by the average tumor increase volume of untreated animals.
Tumor volume was measured twice weekly with a two-dimensional caliper, and volumes were measured in cubic millimeters. Tumor volume TV=0.5a×b^2. Wherein, a is the long diameter of the tumor and b is the short diameter of the tumor.
T/C(%) is the percentage of the relative tumor volume (RTV) between the treatment group and the control group at a certain time point. The calculation Formula is as follows: T/C% = TRTV/CRTV×100% (TRTV: mean RTV of treatment group; CRTV: mean RTV of vehicle control group; RTV=Vt/V0, V0 is tumor volume of the animal at grouping, Vt is tumor volume of the animal after treatment). mpk is mg/kg body weight.
Body weight change (%) of tumor-bearing animals was calculated as follows: (body weight at measurement - body weight at grouping)/body weight at grouping × 100.

physchem = details: water
[5] = Crystal form conversion: suspension shaking in ethanol; type: physicochemical; details: ethanol (1 mL), sealed, shaken at 50°C and 150 r/min for seven days
Procedure: as §1

[6] = Dynamic vapor sorption (DVS) measurement; type: physicochemical; details: for weight gain due to moisture absorption: DVS, 80% RH, 25°C; for hygroscopicity: from DVS weight gain at 80% RH
Procedure: Dynamic vapor sorption (DVS) curve: a dynamic vapor sorption curve was collected on a DVS Intrinsic of SMS (Surface Measurement Systems). The relative humidity at 25°C was calibrated using the deliquescent points of LiCl, Mg(NO3)2 and KCl.
(§2) Chinese Pharmacopoeia 2020, volume IV, 9103 Guidelines for Hygroscopicity Test of Drugs specifies the definition of hygroscopicity characteristics and hygroscopicity weight gain: (1) deliquescence: absorbing sufficient water to form a liquid; (2) extremely hygroscopicity: hygroscopicity weight gain of not less than 15%; (3) hygroscopicity: hygroscopicity weight gain of less than 15% but not less than 2%; (4) slightly hygroscopicity: hygroscopicity weight gain of less than 2% but not less than 0.2%; (5) no or almost no hygroscopicity: moisture gain is less than 0.2%.

[7] = Solubility in 0.1 mol/L hydrochloric acid and pH 6.8 phosphate buffer, 24 h at 37°C; type: physicochemical; details: for solubility: 1440 min
[8] = Chemical stability: related substances after 80°C for one week with water added; type: physicochemical; details: for Phosphate content (80°C, 7 d): 25 mg sample with 5 mg water, oven at 80°C
[9] = Hygroscopicity test according to Chinese Pharmacopoeia 2020, volume IV, 9103; type: physicochemical
Excerpt: as §2

[10] = listed as phosphate crystal form I of the compound of Formula (I)
[11] = listed as phosphate crystal form II of the compound of Formula (I)

T1 sequence (P50750 whole entry): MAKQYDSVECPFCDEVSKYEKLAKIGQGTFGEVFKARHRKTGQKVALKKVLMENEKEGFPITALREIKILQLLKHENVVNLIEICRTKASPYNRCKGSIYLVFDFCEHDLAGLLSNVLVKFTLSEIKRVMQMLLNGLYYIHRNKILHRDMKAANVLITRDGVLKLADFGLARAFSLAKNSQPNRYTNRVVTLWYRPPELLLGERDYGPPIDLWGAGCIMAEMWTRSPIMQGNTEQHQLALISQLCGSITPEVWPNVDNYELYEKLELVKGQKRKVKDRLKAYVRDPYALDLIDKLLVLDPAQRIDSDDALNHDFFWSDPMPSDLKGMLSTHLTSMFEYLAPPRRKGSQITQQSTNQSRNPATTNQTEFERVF
T1 sequence (O60563 whole entry partner): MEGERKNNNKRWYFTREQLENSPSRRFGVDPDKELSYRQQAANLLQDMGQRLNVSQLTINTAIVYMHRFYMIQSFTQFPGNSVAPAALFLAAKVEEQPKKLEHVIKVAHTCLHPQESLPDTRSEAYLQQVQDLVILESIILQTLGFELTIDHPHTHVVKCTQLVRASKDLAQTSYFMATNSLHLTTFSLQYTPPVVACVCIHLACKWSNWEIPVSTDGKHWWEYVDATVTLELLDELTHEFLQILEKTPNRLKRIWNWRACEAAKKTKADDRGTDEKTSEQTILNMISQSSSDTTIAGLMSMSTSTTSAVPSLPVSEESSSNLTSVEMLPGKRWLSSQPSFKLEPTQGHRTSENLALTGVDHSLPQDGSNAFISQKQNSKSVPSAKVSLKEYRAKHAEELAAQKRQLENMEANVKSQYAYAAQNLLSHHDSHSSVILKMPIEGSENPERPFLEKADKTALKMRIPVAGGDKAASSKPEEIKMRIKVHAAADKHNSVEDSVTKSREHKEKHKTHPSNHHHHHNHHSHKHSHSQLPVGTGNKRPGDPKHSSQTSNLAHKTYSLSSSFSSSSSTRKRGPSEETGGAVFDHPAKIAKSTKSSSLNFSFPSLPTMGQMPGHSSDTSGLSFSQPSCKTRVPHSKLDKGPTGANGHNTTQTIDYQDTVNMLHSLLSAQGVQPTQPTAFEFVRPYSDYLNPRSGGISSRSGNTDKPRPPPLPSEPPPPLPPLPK

changes in crystal form [1]: no obvious changes
change of XRPD pattern ([1]; accelerated conditions (40°C-75% RH), 7 days and 2 months (60 days), FIG. 15): no obvious change
change of XRPD pattern ([1]; high temperature conditions (60°C), 7 days and 2 months (60 days)): no obvious change
Solubility in pH 4.5 buffer ([2]; rough solubility, pH 4.5 buffer (acetic acid-sodium acetate system)): ≤43.3 mg/mL
Solubility in pH 6.8 buffer ([2]; rough solubility, pH 6.8 buffer (sodium dihydrogen phosphate-sodium hydroxide system)): ≤21.8 mg/mL
SMILES: C[C@H](c1cc(N[C@H]2CC[C@H](N)C2)n2nccc2n1)C1CCC1 [L-tartrate crystal form I]

IC50 (CDK9/CycT): 0.012 µM
AUC(0-t) ([3]; mouse, plasma, po, read-out: Area under the curve for oral administration AUC0-t): 2960 ng·h/mL
Cmax ([3]; mouse, plasma, po, read-out: Maximum oral plasma concentration Cmax): 379 ng/mL
SMILES: C[C@H](c1cc(N[C@H]2CC[C@H](N)C2)n2nccc2n1)C1CCC1 [The compound of Formula (I), (1S,3S)-N1-(5-((S)-1-cyclobutylethyl)pyrazolo[1,5-a]pyrimidin-7-yl)cyclopentan-1,3-diamine]
Mean tumor weight ([4]; 12.5 mpk): 0.17 g
T/C ([4]; 12.5 mpk): 21.50%
Mean tumor weight ([4]; 25 mpk): 0.01 g
T/C ([4]; 25 mpk): 1.40%

solubility (physchem): ≤ 26.6 mg/mL
SMILES: C[C@H](c1cc(N[C@H]2CC[C@H](N)C2)n2nccc2n1)C1CCC1 [phosphate]

changes in crystal form [1]: no obvious changes
change of XRPD pattern ([1]; high temperature conditions, 7 days and 30 days, Figure 16): no obvious change
crystal form of the obtained solid (XRPD) [5]: phosphate crystal form II
solubility ([2]; acetate buffer, pH 4.5, rough solubility, pH 4.5 buffer (acetic acid-sodium acetate system), read-out: Solubility in pH 4.5 buffer): ≤ 33 mg/mL
solubility ([2]; phosphate buffer, pH 6.8, rough solubility, pH 6.8 buffer (sodium dihydrogen phosphate-sodium hydroxide system), read-out: Solubility in pH 6.8 buffer): ≤ 24.5 mg/mL
weight gain due to moisture absorption [6, 10]: 9%
solubility at 24 h ([7]; 0.1n hcl): 22.5 mg/mL
solubility at 24 h ([7]; phosphate buffer, pH 6.8, pH 6.8 phosphate buffer): 22.5 mg/mL
Phosphate content (0 d) [8]: 99.64
Phosphate content (80°C, 7 d) [8]: 98.66
SMILES: C[C@H](c1cc(N[C@H]2CC[C@H](N)C2)n2nccc2n1)C1CCC1 [Phosphate crystal form I]
hygroscopicity [6, 10]: hygroscopicity (hygroscopicity weight gain of less than 15% but not less than 2%)

changes in crystal form [1]: no obvious changes
weight gain due to moisture absorption [6]: 0.45%
weight gain due to moisture absorption [6, 11]: 0.45%
hygroscopicity [6]: slight hygroscopicity
hygroscopicity [6, 11]: slight hygroscopicity
solubility ([7]; 0.1N HCl): 39.14 mg/mL
solubility ([7]; pH 6.8 phosphate buffer): 33.63 mg/mL
Phosphate content (0 d) [8]: 99.64
Phosphate content (80°C, 7 d) [8]: 98.73
SMILES: C[C@H](c1cc(N[C@H]2CC[C@H](N)C2)n2nccc2n1)C1CCC1 [Phosphate crystal form II]

hygroscopicity [9]: slight hygroscopicity
SMILES: C[C@H](c1cc(N[C@H]2CC[C@H](N)C2)n2nccc2n1)C1CCC1 [L-tartrate]

Area under the curve for oral administration AUC0-t [3]: 1191 ng·h/mL
Maximum oral plasma concentration Cmax [3]: 433 ng/mL
SMILES: CCC(CC)c1cc(N[C@H]2CC[C@H](N)C2)n2nccc2n1 [Compound D, reference compound]
Mean tumor weight ([4]; 12.5 mpk): 0.35 g
T/C ([4]; 12.5 mpk): 45.04%
Mean tumor weight ([4]; 25 mpk): 0.02 g
T/C ([4]; 25 mpk): 2.04%
